Where two headings read alike, the source gives them in different places.
Legend:
IRAK4 [1] = target: T1, IRAK4 (Homo sapiens (Human), UniProt Q9NWZ3); assay: IRAK4 Biochemical HTRF Kinase Assay; conditions: read-out: IRAK4 HTRF biochemical: IC50
Procedure, shortened: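 IC50 values derive from non-linear regression of sixteen concentrations in duplicate. Kinase reaction ran 90 min at ambient temperature after adding 5 μM STK-S1 substrate, 10 mM ATP and 10 mM MgCl2 (reaction-solution levels, pre-dilution to 10 μl); phospho-peptide detected by HTRF after 60 min.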
Target sequence in this assay (Q9NWZ3 whole entry, species assumed): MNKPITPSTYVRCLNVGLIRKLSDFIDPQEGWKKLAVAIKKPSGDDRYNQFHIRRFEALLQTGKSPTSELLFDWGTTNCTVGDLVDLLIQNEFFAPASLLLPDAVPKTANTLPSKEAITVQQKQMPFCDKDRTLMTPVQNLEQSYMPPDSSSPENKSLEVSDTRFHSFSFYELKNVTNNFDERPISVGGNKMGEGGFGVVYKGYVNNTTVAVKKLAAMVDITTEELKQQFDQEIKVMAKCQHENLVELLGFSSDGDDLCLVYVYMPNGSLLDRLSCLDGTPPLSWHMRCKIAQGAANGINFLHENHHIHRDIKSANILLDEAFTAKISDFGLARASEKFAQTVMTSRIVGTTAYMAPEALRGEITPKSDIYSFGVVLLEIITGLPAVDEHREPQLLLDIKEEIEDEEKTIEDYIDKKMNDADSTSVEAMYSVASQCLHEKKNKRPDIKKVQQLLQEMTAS

IRAK4 [2] = target: T1, IRAK4; assay: IRAK4 Degradation HiBiT Assay; conditions: HiBiT-tagged Jurkat cells, 4 hrs; for Dmax: Jurkat; for DC50: read-out: Cellular IRAK4 HiBiT: DC50
Target sequence in this assay (Q9NWZ3 whole entry): as the sequence (Q9NWZ3 whole entry, species assumed) above

[3] = read-out: Cellular IRAK4 HiBiT: Dmax, Table 5, multiple runs
[4] = read-out: Cellular IRAK4 HiBiT: Dmax, Table 4

IC50 (IRAK4 [1]; Table 5, multiple runs) [nM]	Dmax (IRAK4 [2]; [3]) [%]	DC50 (IRAK4 [2]; Table 5, multiple runs) [nM]	IC50 (IRAK4 [1]; Table 4) [nM]	Dmax (IRAK4 [2]; [4]) [%]	DC50 (IRAK4 [2]; Table 4) [nM]	Compound
2.2	78	44.7	–	–	–	CNc1cc(-c2ccc3cc(C#N)cnn23)ncc1-c1nnc([C@H]2CC[C@@H](NC(=O)CCOCCNc3ccc4c(c3)C(=O)N(C3CCC(=O)NC3=O)C4=O)CC2)s1 (stereo partly drawn) [Example 115, N-((1s,4s)-4-(5-(6-(3-cyanopyrrolo[1,2-b]pyridazin-7-yl)-4-(methylamino)pyridin-3-yl)-1,3,4-thiadiazol-2-yl)cyclohexyl)-3-(2-((2-(2,6-dioxopiperidin-3-yl)-1,3-dioxoisoindolin-5-yl)amino)ethoxy)propanamide]
1	103	49.1	1	103	49.1	CC(C)Nc1cc(-c2ccc3cc(C#N)cnn23)ncc1-c1nnc(N2CCN(C(=O)CCOCCNc3ccc4c(c3)C(=O)N(C3CCC(=O)NC3=O)C4=O)CC2)s1 (stereo not drawn) [Example 10, 7-(5-(5-(4-(3-(2-((2-(2,6-dioxopiperidin-3-yl)-1,3-dioxoisoindolin-5-yl)amino)ethoxy)propanoyl)piperazin-1-yl)-1,3,4-thiadiazol-2-yl)-4-(isopropylamino)pyridin-2-yl)pyrrolo[1,2-b]pyridazine-3-carbonitrile]
1.3	47	1330	1.3	44	872	Cc1ncsc1-c1ccc([C@H](C)NC(=O)[C@@H]2C[C@@H](O)CN2C(=O)[C@@H](NC(=O)CCOCCOCCOCCOCCOCCC(=O)N2CCN(c3nnc(-c4cnc(-c5ccc6cc(C#N)cnn56)cc4NC(C)C)s3)CC2)C(C)(C)C)cc1 [Example 41, (2S,4R)-1-((S)-2-(tert-butyl)-22-(4-(5-(6-(3-cyanopyrrolo[1,2-b]pyridazin-7-yl)-4-(isopropylamino)pyridin-3-yl)-1,3,4-thiadiazol-2-yl)piperazin-1-yl)-4,22-dioxo-7,10,13,16,19-pentaoxa-3-azadocosanoyl)-4-hydroxy-N—((S)-1-(4-(4-methylthiazol-5-yl)phenyl)ethyl)pyrrolidine-2-carboxamide]
0.6	–	> 9980	–	–	–	CNc1cc(-c2ccc3cc(C#N)cnn23)ncc1-c1nnc(N2CCN(C3CCN(C(=O)c4ccc(C(=O)NC5CCC(=O)NC5=O)cc4)CC3)CC2)s1 (stereo not drawn) [Example 132, 4-(4-(4-(5-(6-(3-cyanopyrrolo[1,2-b]pyridazin-7-yl)-4-(methylamino)pyridin-3-yl)-1,3,4-thiadiazol-2-yl)piperazin-1-yl)piperidine-1-carbonyl)-N-(2,6-dioxopiperidin-3-yl)benzamide]
1.2	106	39.8	–	–	–	CNc1cc(-c2ccc3cc(C#N)cnn23)ncc1-c1nnc(C23CCC(NC(=O)CN4CCN(c5ccc6c(c5)C(=O)N(C5CCC(=O)NC5=O)C6=O)CC4)(CC2)CC3)s1 (stereo not drawn) [Example 105, N-(4-(5-(6-(3-cyanopyrrolo[1,2-b]pyridazin-7-yl)-4-(methylamino)pyridin-3-yl)-1,3,4-thiadiazol-2-yl)bicyclo[2.2.2]octan-1-yl)-2-(4-(2-(2,6-dioxopiperidin-3-yl)-1,3-dioxoisoindolin-5-yl)piperazin-1-yl)acetamide]
2.9	82	72.6	–	–	–	CNc1cc(-c2ccc3cc(C#N)cnn23)ncc1-c1nnc([C@H]2CC[C@@H](NC(=O)CCCCCNc3ccc4c(c3)C(=O)N(C3CCC(=O)NC3=O)C4=O)CC2)s1 (stereo partly drawn) [Example 114, N-((1s,4s)-4-(5-(6-(3-cyanopyrrolo[1,2-b]pyridazin-7-yl)-4-(methylamino)pyridin-3-yl)-1,3,4-thiadiazol-2-yl)cyclohexyl)-6-((2-(2,6-dioxopiperidin-3-yl)-1,3-dioxoisoindolin-5-yl)amino)hexanamide]
1.4	118	35.2	–	–	–	CNc1cc(-c2ccc3cc(C#N)cnn23)ncc1-c1nnc([C@H]2CC[C@H](NC(=O)C[C@H](NC(=O)[C@@H]3C[C@@H](O)CN3C(=O)[C@@H](NC(=O)C3(F)CC3)C(C)(C)C)c3ccc(-c4scnc4C)cc3)CC2)s1 [Example 118, (2S,4R)—N—((S)-3-(((1r,4S)-4-(5-(6-(3-cyanopyrrolo[1,2-b]pyridazin-7-yl)-4-(methylamino)pyridin-3-yl)-1,3,4-thiadiazol-2-yl)cyclohexyl)amino)-1-(4-(4-methylthiazol-5-yl)phenyl)-3-oxopropyl)-1-((S)-2-(1-fluorocyclopropane-1-carboxamido)-3,3-dimethylbutanoyl)-4-hydroxypyrrolidine-2-carboxamide]
0.9	–	> 9980	–	–	–	CNc1cc(-c2ccc3cc(C#N)cnn23)ncc1-c1nnc(N2CCC(NC[C@@H]3CCN(c4ccc5c(c4)n(C)c(=O)n5C4CCC(=O)NC4=O)C3)CC2)s1 (stereo partly drawn) [Example 93, 7-(5-(5-(4-((((3S)-1-(1-(2,6-dioxopiperidin-3-yl)-3-methyl-2-oxo-2,3-dihydro-1H-benzo[d]imidazol-5-yl)pyrrolidin-3-yl)methyl)amino)piperidin-1-yl)-1,3,4-thiadiazol-2-yl)-4-(methylamino)pyridin-2-yl)pyrrolo[1,2-b]pyridazine-3-carbonitrile]
0.5	70	53.1	0.4	70	53	CC(C)Nc1cc(-c2ccc3cc(C#N)cnn23)ncc1-c1nnc(N2CCN(CCCCc3cccc4c3CN(C3CCC(=O)NC3=O)C4=O)CC2)s1 (stereo not drawn) [Example 28, 7-(5-(5-(4-(4-(2-(2,6-dioxopiperidin-3-yl)-1-oxoisoindolin-4-yl)butyl)piperazin-1-yl)-1,3,4-thiadiazol-2-yl)-4-(isopropylamino)pyridin-2-yl)pyrrolo[1,2-b]pyridazine-3-carbonitrile]
3.6	53	419	3.6	53	420	Cc1ncsc1-c1ccc([C@H](C)NC(=O)[C@@H]2C[C@@H](O)CN2C(=O)[C@@H](NC(=O)CCC(=O)N2CCN(c3nnc(-c4cnc(-c5ccc6cc(C#N)cnn56)cc4NC(C)C)s3)CC2)C(C)(C)C)cc1 [Example 40, (2S,4R)-1-((S)-2-(4-(4-(5-(6-(3-cyanopyrrolo[1,2-b]pyridazin-7-yl)-4-(isopropylamino)pyridin-3-yl)-1,3,4-thiadiazol-2-yl)piperazin-1-yl)-4-oxobutanamido)-3,3-dimethylbutanoyl)-4-hydroxy-N—((S)-1-(4-(4-methylthiazol-5-yl)phenyl)ethyl)pyrrolidine-2-carboxamide]
15.4	73	1240	15.4	78	1570	Cc1ncsc1-c1ccc(CNC(=O)[C@@H]2C[C@@H](O)CN2C(=O)C(NC(=O)[C@H]2CC[C@H](CN3CCN(c4nnc(-c5cnc(-c6ccc7cc(C#N)cnn67)cc5NC(C)C)s4)CC3)CC2)C(C)(C)C)cc1 (stereo partly drawn) [Example 46, (2S,4R)-1-((S)-2-((1r,4S)-4-((4-(5-(6-(3-cyanopyrrolo[1,2-b]pyridazin-7-yl)-4-(isopropylamino)pyridin-3-yl)-1,3,4-thiadiazol-2-yl)piperazin-1-yl)methyl)cyclohexane-1-carboxamido)-3,3-dimethylbutanoyl)-4-hydroxy-N-(4-(4-methylthiazol-5-yl)benzyl)pyrrolidine-2-carboxamide]
0.8	–	> 9980	–	–	–	CNc1cc(-c2ccc3cc(C#N)cnn23)ncc1-c1nnc(C2CCC(NC(=O)C[C@H](NC(=O)[C@@H]3C[C@@H](O)CN3C(=O)[C@@H](NC(=O)C3(F)CC3)C(C)(C)C)c3ccccc3)CC2)s1 (stereo partly drawn) [Example 149, (2S,4R)—N—((S)-3-(((1r,4S)-4-(5-(6-(3-cyanopyrrolo[1,2-b]pyridazin-7-yl)-4-(methylamino)pyridin-3-yl)-1,3,4-thiadiazol-2-yl)cyclohexyl)amino)-3-oxo-1-phenylpropyl)-1-((S)-2-(1-fluorocyclopropane-1-carboxamido)-3,3-dimethylbutanoyl)-4-hydroxypyrrolidine-2-carboxamide]
10.2	57	171	–	–	–	CNc1cc(-c2ccc3cc(C#N)cnn23)ncc1-c1nnc([C@H]2CC[C@@H](NC(=O)CCCCCCCNc3ccc4c(c3)C(=O)N(C3CCC(=O)NC3=O)C4=O)CC2)s1 (stereo partly drawn) [Example 112, N-((1s,4s)-4-(5-(6-(3-cyanopyrrolo[1,2-b]pyridazin-7-yl)-4-(methylamino)pyridin-3-yl)-1,3,4-thiadiazol-2-yl)cyclohexyl)-8-((2-(2,6-dioxopiperidin-3-yl)-1,3-dioxoisoindolin-5-yl)amino)octanamide]

Compound	IC50 (IRAK4 [1]; Table 5, multiple runs) [nM]	Dmax (IRAK4 [2]; [3]) [%]	DC50 (IRAK4 [2]; Table 5, multiple runs) [nM]	IC50 (IRAK4 [1]; Table 4) [nM]	Dmax (IRAK4 [2]; [4]) [%]	DC50 (IRAK4 [2]; Table 4) [nM]
CN[C@@H](C)C(=O)N[C@H](C(=O)N1C[C@@H](NC(=O)CCOCCC(=O)N2CCN(c3nnc(-c4cnc(-c5ccc6cc(C#N)cnn56)cc4NC(C)C)s3)CC2)C[C@H]1C(=O)N[C@@H]1CCCc2ccccc21)C1CCCCC1 [Example 54, (2S,4S)-4-(3-(3-(4-(5-(6-(3-cyanopyrrolo[1,2-b]pyridazin-7-yl)-4-(isopropylamino)pyridin-3-yl)-1,3,4-thiadiazol-2-yl)piperazin-1-yl)-3-oxopropoxy)propanamido)-1-((S)-2-cyclohexyl-2-((S)-2-(methylamino)propanamido)acetyl)-N—((R)-1,2,3,4-tetrahydronaphthalen-1-yl)pyrrolidine-2-carboxamide]	0.6	48	794	0.6	48	816

— patent US12528814B2, “Bifunctional degraders of interleukin-1 receptor-associated kinases and therapeutic use thereof” (NURIX THERAPEUTICS, INC., priority 2020, dated 2026)
